Values quoted from earlier work as cited in patent US20150209442A1, “METHOD TO IMPROVE PHARMACOKINETICS OF DRUGS” (The Board of Regents of the University of Texas System, priority 2012, published 2015).

What was measured:
TRPV1 = details: spinal cord; completely reversible by a TRPV1 antagonist

Molecule	bound to plasma proteins [%]	free (unbound) share of total concentration in plasma (plasma) [%]	tactile allodynia (TRPV1)
CC(C(=O)O)c1ccc(-c2ccccc2)c(F)c1 (stereo not shown) [flurbiprofen]	> 99	~0.1	–
COc1cc(CNC(=O)CCCC/C=C/C(C)C)ccc1O [capsaicin]	–	–	results in tactile allodynia
9-hydroxyoctadecadienoic acid [9-HODE]	–	–	results in tactile allodynia
